Entries after “also recorded” stand apart in the source; their conditions may differ.
Columns and labels:
[1] = system: hyperlipidemic guinea pigs; assay: Hypocholesterolemic effect in guinea pigs on high fat diet; format: in vivo, guinea pig; conditions: 10 mg/kg oral daily, 28 days
Method: Male Dunkin-Hartley guinea pigs weighing 300+/−30 g were acclimated one week before the in-life phase of the experiment. The study diet (Research Diets Inc, New Brunswick, N.J., USA) contained 15% corn oil and 0.25% cholesterol. A daily oral dose of 2000 mg/kg of RAP2 corresponding 9 μg/kg of Ribetril A and 82 μg/kg total Ribetrils as well as 632 μg/kg total Glucoindols was administered orally at a dosing volume of 10 mL/kg. A daily oral dose of 2000 mg/kg of RAP4 corresponding to 112 μg/kg of Ribetril A and 492 μg/kg total Ribetrils as well as 240 μg/kg total Glucoindols was administered orally at a dosing volume of 10 mL/kg. The positive control atorvastatin (10 mg/kg) and vehicle (0.5% methylcellulose) were each administered orally at a dosing volume of 10 mL/kg. […]
After fasting overnight, blood samples were obtained from the retro-orbital sinus of each animal 5 min before initial test substance and/or vehicle administration (pre-treatment) and 24 hours after dosing on days 14 and 28 (post-treatment). The serum total cholesterol (TC), low density lipoprotein cholesterol (LDL-C), high density lipoprotein cholesterol (HDL-C) and triglycerides (TG) were determined by an enzymatic method (Wako total cholesterol, LDL-C, HDL-C & TG diagnostic kit and Toshiba Automatic Analyzer Model TAB-120FR).

[2] = system: BKS Cg-Lepr db/Lepr db mice; assay: Hypoglycemic effect in NIDDM mice; format: in vivo, mouse; conditions: oral daily 14 days (RAP4 2000 mg/kg, metformin 300 mg/kg), day 14 post dosing
Method: Male non-insulin dependent diabetic mellitus (NIDDM) mice (BKS Cg-Lepr db/Lepr db) weighing 50+/−5 g were used at age of 12-13 weeks. A daily oral dose of 2000 mg/kg of RAP4 corresponding to corresponding to 112 μg/kg of Ribetril A and 492 μg/kg total Ribetrils as well as 240 μg/kg total Glucoindols was administered orally at a dosing volume of 10 mL/kg to 12 animals for a total of 14 consecutive days. The positive control of metformin (300 mg/kg) and vehicle (2% Tween 80) were each administered orally at a dosing volume of 10 mL/kg to groups of 6 animals once daily for a total of 14 consecutive days. Serum glucose levels were measured by means of an automated analyzer (TBA-120FR, Toshiba) and serum insulin by ELISA at zero min (pre-treatment) on Day 1, and at 90 min after the daily dosing (post-treatment) on Day 7 and Day 14.

PDE4A1A = target: T1, PDE4A1A (Homo sapiens, UniProt P27815); assay: PDE4A1A Assay Kit, fluorescence polarization; format: biochemical; conditions: PDE4
T1 construct: purchased BSP Bioscience 60340
T1 sequence (P27815 1-647 isoform P27815-4): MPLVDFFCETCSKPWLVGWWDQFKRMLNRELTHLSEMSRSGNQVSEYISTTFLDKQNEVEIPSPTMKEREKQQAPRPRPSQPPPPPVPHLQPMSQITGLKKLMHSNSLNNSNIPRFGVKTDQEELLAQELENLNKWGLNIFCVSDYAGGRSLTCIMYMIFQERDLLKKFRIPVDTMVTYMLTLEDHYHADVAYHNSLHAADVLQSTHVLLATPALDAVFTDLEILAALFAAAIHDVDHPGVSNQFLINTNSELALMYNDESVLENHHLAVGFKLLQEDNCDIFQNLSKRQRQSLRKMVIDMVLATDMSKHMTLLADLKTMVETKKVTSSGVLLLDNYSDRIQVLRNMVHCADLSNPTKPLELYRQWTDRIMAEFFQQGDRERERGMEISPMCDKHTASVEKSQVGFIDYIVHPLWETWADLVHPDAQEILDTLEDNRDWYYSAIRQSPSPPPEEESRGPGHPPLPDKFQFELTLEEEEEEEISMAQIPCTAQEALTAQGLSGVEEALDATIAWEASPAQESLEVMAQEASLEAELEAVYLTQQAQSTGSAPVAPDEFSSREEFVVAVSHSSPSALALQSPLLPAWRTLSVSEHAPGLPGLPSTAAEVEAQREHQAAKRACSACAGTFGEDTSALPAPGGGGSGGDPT
Method: Inhibition of PDE4 blocks hydrolysis of cAMP, thereby increasing levels of cAMP. The PDE4A1A Assay Kit is designed for identification of PDE4A1A inhibitors using fluorescence polarization. The assay is based on the binding of fluorescent AMP generated by PDE4A1A to the binding agent.
The assay was performed according to the protocol of the PDE4A1A assay provided by BSP Bioscience [BSP Bioscience, Data sheet PDE4A1A Assay Kit, Catalog #60340].
(§1) A fluorescence plate reader (Appliskan, Thermo Scientific) was used to detect fluorescence emission signals according to the following parameters:
(§2) Selected alkaloids of the invention prepared in example 1 were tested in 5 times dilutions to establish the 50% inhibitory concentration (IC-50).

IkappaB kinase β (IKK-β) = target: T2, IkappaB kinase β (IKK-β) (Homo sapiens, UniProt O14920); assay: IKK-β inhibition, Z'-LYTE Kinase Assay Kit-Ser/Thr 5 Peptide (FRET); format: biochemical
T2 construct: purchased Invitrogen
T2 sequence (O14920 1-756): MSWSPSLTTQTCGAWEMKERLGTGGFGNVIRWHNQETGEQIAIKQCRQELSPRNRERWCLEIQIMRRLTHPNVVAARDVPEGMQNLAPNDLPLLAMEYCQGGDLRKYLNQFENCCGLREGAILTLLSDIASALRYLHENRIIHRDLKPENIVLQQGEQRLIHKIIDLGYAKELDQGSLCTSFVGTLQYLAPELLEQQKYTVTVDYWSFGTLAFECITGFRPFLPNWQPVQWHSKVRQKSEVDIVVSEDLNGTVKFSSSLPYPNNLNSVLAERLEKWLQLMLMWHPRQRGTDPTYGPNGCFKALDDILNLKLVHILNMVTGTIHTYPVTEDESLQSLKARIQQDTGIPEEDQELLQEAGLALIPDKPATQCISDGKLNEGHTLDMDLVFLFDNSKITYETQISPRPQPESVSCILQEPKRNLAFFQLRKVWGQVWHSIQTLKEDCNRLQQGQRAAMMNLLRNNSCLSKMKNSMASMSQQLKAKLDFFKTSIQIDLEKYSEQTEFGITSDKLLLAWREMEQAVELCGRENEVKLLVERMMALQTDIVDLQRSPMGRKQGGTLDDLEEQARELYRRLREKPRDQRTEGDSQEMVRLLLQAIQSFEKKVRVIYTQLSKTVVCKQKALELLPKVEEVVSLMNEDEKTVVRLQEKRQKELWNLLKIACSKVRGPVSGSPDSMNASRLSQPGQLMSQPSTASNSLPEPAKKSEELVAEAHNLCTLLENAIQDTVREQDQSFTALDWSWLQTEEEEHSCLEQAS
Method: IKK-β phosphorylates the inhibitory IκB protein associated with NE-κB. Phosphorylation results in the dissociation of IκB from NE-κB, allowing NE-κB to migrate into the cell nucleus where it can activate the transcription of at least 150 genes. The Z9-LYTE™ Kinase Assay Kit-Ser/Thr 5 Peptide is designed to screen for potential IKK-β inhibitory effect using fluorescence resonance energy transfer (FRET) between coumarin and fluorescein for detection by a fluorometer.
The assay was performed according to Z9-LYTE™ KINASE ASSAY KIT-SER/THR 5 PEPTIDE protocol provided by Invitrogen [Invitrogen, Z′-LYTE™ Kinase Assay Kit-Ser/Thr 5 Peptide Protocol, O-062187-r1 US 0405]. Based on the IKK-β certificate of the kit, a kinase concentration of 500 ng/ml was chosen. Km for ATP 9.4 μM was chosen according to an optimization for the LanthaScreen™ kinase assay [http://tools.invitrogen.com/content/sfs/manuals/IKBKB_%28IKK_beta%29_LanthaScreen_Activity.pdf].
as §1, §2

PDE5A = target: T3, PDE5A (Homo sapiens, UniProt O76074); assay: PDE5A Assay Kit, fluorescence polarization; format: biochemical; conditions: PDE5
T3 construct: purchased BSP Bioscience 60350
Method: Inhibition of PDE5 blocks hydrolysis of cGMP, thereby increasing levels of cGMP. The PDE5A Assay Kit is designed for identification of PDE5A inhibitors using fluorescence polarization. The assay is based on the binding of a fluorescent nucleotide monophosphate generated by PDE5A to the binding agent.
The assay was performed according to the protocol of the PDE5A assay provided by BSP Bioscience [BSP Bioscience, Data sheet PDE5A Assay Kit, Catalog #60350].
as §1
Test Compounds • Selected alkaloids of the invention prepared in example 1 were tested in 5 times dilutions to establish the 50% inhibitory concentration (IC-50).

CC(C)c1c(C(=O)Nc2ccccc2)c(-c2ccccc2)c(-c2ccc(F)cc2)n1CC[C@@H](O)C[C@@H](O)CC(=O)O [atorvastatin]
effect on triglycerides [1]: did not significantly reduce triglycerides; also recorded: did not display a significant decreasing effect on triglyceride levels

CN(C)C(=N)N=C(N)N [metformin]
serum glucose levels relative to vehicle control [2]: significant decrease

N#C/C(=C\CO[C@@H]1O[C@H](CO)[C@@H](O)[C@H](O)[C@H]1O)COC(=O)/C=C/c1ccc(O)c(O)c1 [Ribetril A, (E)-(E)-2-cyano-4-(((2R,3R,4S,5S,6R)-3,4,5-trihydroxy-6-(hydroxymethyl)tetrahydro-2H-pyran-2-yl)oxy)but-2-en-1-yl 3-(3,4-dihydroxyphenyl)acrylate]
times lower IC-50 as compared to Ribetril B (PDE4A1A): 5 times | times lower IC-50 as compared to Ribetril C (PDE4A1A): 20 times | times lower IC-50 as compared to Ribetril B (IkappaB kinase β (IKK-β)): 48 times | times lower IC-50 as compared to Ribetril C (IkappaB kinase β (IKK-β)): 118 times | times lower IC-50 as compared to Ribetril B (PDE5A): 3 times | times lower IC-50 as compared to Ribetril C (PDE5A): 8 times

— patent US20160184338A1, “Bioactive Alkaloid Compositions and Their Medical Uses” (Asiros A/S, priority 2013, published 2016)
